Molecular target: T1, human CRHR2-alpha (Homo sapiens, UniProt Q13324)
T1 sequence (Q13324 1-411): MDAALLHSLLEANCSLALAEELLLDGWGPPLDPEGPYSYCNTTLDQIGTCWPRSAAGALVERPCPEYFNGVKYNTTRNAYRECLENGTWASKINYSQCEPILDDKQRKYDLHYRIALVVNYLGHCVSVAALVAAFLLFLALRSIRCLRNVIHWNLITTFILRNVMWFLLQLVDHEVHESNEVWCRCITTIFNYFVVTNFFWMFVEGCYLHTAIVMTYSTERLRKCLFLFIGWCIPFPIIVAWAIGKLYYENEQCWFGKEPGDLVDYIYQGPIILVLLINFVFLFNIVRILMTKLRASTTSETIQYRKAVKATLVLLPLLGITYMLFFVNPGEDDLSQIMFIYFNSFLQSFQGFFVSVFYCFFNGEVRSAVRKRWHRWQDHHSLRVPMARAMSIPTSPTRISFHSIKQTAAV
Assay: cAMP functional assay for human CRHR2 (LANCE Ultra cAMP, TR-FRET)
Format: cell-based
Settings: CHO-K1 cells expressing human CRHR2-alpha, agonist human urocortin2 at EC80, cAMP; read-out: IC50 against CRHR2
How it was run: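 CHO-K1 stable lines; 4,000 cells/well; compound 30 min, 25° C; EC80 agonist (human urocortin2 → CRHR2, CRF → CRHR1) 30 min, 25° C; buffer HBSS/0.1% BSA/0.5 mM IBMX/5 mM Hepes pH 7.4; Eu-cAMP tracer + ULight antibody 60 min; TR-FRET read; IC50 from % inhibition curves.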

| SMILES | IC50 |
| --- | --- |
| COCCOc1ccc(-n2c(=O)n(C[C@H]3CC[C@H](NC(=O)c4cc(Cl)cnc4C(F)(F)F)CC3)c3ccccc32)cn1 [Example 416, 5-chloro-N-((1r,4r)-4-((3-(6-(2-methoxyethoxy)pyridin-3-yl)-2-oxo-2,3-dihydro-1H-benzo [d]imidazol-1-yl)methyl)cyclo-hexyl)-2-(trifluoromethyl) nicotinamide] | < 0.3 µM |
| COCCOc1ccc(-n2c(=O)n(C[C@H]3CC[C@H](NC(=O)c4cc(Cl)cnc4C)CC3)c3ccccc32)cn1 [Example 417, 5-chloro-N-((1r,4r)-4-((3-(6-(2-methoxyethoxy)pyridin-3-yl)-2-oxo-2,3-dihydro-1H-benzo[d]imidazol-1-yl)methyl)cyclohexyl)-2-methylnicotinamide] | < 0.3 µM |
| O=C(N[C@H]1CC[C@H](Cn2c(=O)n(-c3cncc4ccccc34)c3ccccc32)CC1)c1cc(Cl)cnc1C(F)F [Example 418, 5-chloro-2-(difluoromethyl)-N-((1r,4r)-4-((3-(isoquinolin-4-yl)-2-oxo-2,3-dihydro-1H-benzo [d]imidazol-1-yl)methyl)cyclo-hexyl)nicotinamide] | < 0.3 µM |
| O=C(N[C@H]1CC[C@H](Cn2c(=O)n(-c3cccc4cccnc34)c3ccccc32)CC1)c1cc(Cl)cnc1C(F)F [Example 419, 5-chloro-2-(difluoromethyl)-N-((1r,4r)-4-((2-oxo-3-(quinolin-8-yl)-2,3-dihydro-1H-benzo [d]imidazol-1-yl)methyl)cyclo-hexyl)nicotinamide] | < 0.3 µM |
| O=C(N[C@H]1CC[C@H](Cn2c(=O)n(-c3cccc4nccn34)c3ccccc32)CC1)c1cc(Cl)cnc1C(F)F [Example 420, 5-chloro-2-(difluoromethyl)-N-((1r,4r)-4-((3-(imidazo[1,2-a]pyridin-5-yl)-2-oxo-2,3-dihydro-1H-benzo[d]imidazol-1-yl)methyl)cyclohexyl)nicotinamide] | < 0.3 µM |
| Cn1cc2c(-n3c(=O)n(C[C@H]4CC[C@H](NC(=O)c5cc(Cl)cnc5C(F)F)CC4)c4ccccc43)cccc2n1 [Example 421, 5-chloro-2-(difluoromethyl)-N-((1r,4r)-4-((3-(2-methyl-2H-indazol-4-yl)-2-oxo-2,3-dihydro-1H-benzo[d]imidazol-1-yl)methyl)cyclohexyl)nicotinamide] | < 0.3 µM |
| O=C(N[C@H]1CC[C@H](Cn2c(=O)n(-c3ccc4cccnc4c3)c3ccccc32)CC1)c1cc(Cl)cnc1C(F)F [Example 422, 5-chloro-2-(difluoromethyl)-N-((1r,4r)-4-((2-oxo-3-(quinolin-7-yl)-2,3-dihydro-1H-benzo[d]imidazol-1-yl)methyl)cyclo-hexyl)nicotinamide] | < 0.3 µM |
| O=C(N[C@H]1CC[C@H](Cn2c(=O)n(-c3ccc4ccncc4c3)c3ccccc32)CC1)c1cc(Cl)cnc1C(F)F [Example 423, 5-chloro-2-(difluoromethyl)-N-((1r,4r)-4-((3-(isoquinolin-7-yl)-2-oxo-2,3-dihydro-1H-benzo[d]imidazol-1-yl)methyl)cyclohexyl)nicotinamide] | < 0.3 µM |
| O=C(N[C@H]1CC[C@H](Cn2c(=O)n(-c3cnc4[nH]ccc4c3)c3ccccc32)CC1)c1cc(Cl)cnc1C(F)(F)F [Example 424, 5-chloro-N-((1r,4r)-4-((2-oxo-3-(1H-pyrrolo[2,3-b]pyridin-5-yl)-2,3-dihydro-1H-benzo [d]imidazol-1-yl)methyl)cyclo-hexyl)-2-(trifluoromethyl) nicotinamide] | < 0.3 µM |
| Cc1c[nH]c2ncc(-n3c(=O)n(C[C@H]4CC[C@H](NC(=O)c5cc(Cl)cnc5C(F)(F)F)CC4)c4ccccc43)cc12 [Example 425, 5-chloro-N-((1r,4r)-4-((3-(3-methyl-1H-pyrrolo[2,3-b]pyridin-5-yl)-2-oxo-2,3-dihydro-1H-benzo[d]imidazol-1-yl)methyl)cyclo-hexyl)-2-(trifluoromethyl) nicotinamide] | < 0.3 µM |
| Cc1c[nH]c2ncc(-n3c(=O)n(C[C@H]4CC[C@H](NC(=O)c5cc(Cl)cnc5C(F)(F)F)CC4)c4cccnc43)cc12 [Example 427, 5-chloro-N-((1r,4r)-4-((3-(3-methyl-1H-pyrrolo[2,3-b]pyridin-5-yl)-2-oxo-2,3-dihydro-1H-imidazo[4,5-b]pyridin-1-yl)methyl)cyclo-hexyl)-2-(trifluoromethyl) nicotinamide] | < 0.3 µM |
| O=C(N[C@H]1CC[C@H](Cn2c(=O)n(-c3ccc(O[C@@H]4CCOC4)nc3)c3ccccc32)CC1)c1cc(Cl)cnc1C(F)F [Example 428, 5-chloro-2-(difluoromethyl)-N-((1R,4r)-4-((2-oxo-3-(6-(((R)-tetrahydrofuran-3-yl)oxy)pyridin-3-yl)-2,3-dihydro-1H-benzo[d]imidazol-1-yl)methyl)cyclohexyl)nicotinamide] | < 0.3 µM |
| CC(C)(O)COc1ccc(-n2c(=O)n(C[C@H]3CC[C@H](NC(=O)c4cc(Cl)cnc4C(F)F)CC3)c3ccccc32)cn1 [Example 429, 5-chloro-2-(difluoromethyl)-N-((1r,4r)-4-((3-(6-(2-hydroxy-2-methylpropoxy)pyridin-3-yl)-2-oxo-2,3-dihydro-1H-benzo[d]imidazol-1-yl)methyl)cyclohexyl) nicotinamide] | < 0.3 µM |
| O=C(N[C@H]1CC[C@H](Cn2c(=O)n(-c3ccc(O[C@H]4CCOC4)nc3)c3ccccc32)CC1)c1cc(Cl)cnc1C(F)F [Example 430, 5-chloro-2-(difluoromethyl)-N-((1S,4r)-4-((2-oxo-3-(6-(((S)-tetrahydrofuran-3-yl)oxy)pyridin-3-yl)-2,3-dihydro-1H-benzo[d]imidazol-1-yl)methyl)cyclohexyl)nicotinamide] | < 0.3 µM |
| CONC(=O)c1ccc(-n2c(=O)n(C[C@H]3CC[C@H](NC(=O)c4cc(Cl)cnc4C(F)(F)F)CC3)c3ccccc32)cn1 [Example 431, 5-(3-(((1r,4r)-4-(5-chloro-2-(trifluoromethyl)nicotinamido)cyclohexyl)methyl)-2-oxo-2,3-dihydro-1H-benzo[d]imidazol-1-yl)-N-methoxypicolinamide] | < 0.3 µM |
| O=C(N[C@H]1CC[C@H](Cn2c(=O)n(-c3ccc(OCCF)nc3)c3ccccc32)CC1)c1cc(Cl)cnc1C(F)F [Example 432, 5-chloro-2-(difluoromethyl)-N-((1r,4r)-4-((3-(6-(2-fluoroethoxy)pyridin-3-yl)-2-oxo-2,3-dihydro-1H-benzo[d]imidazol-1-yl)methyl)cyclohexyl)nicotinamide] | < 0.3 µM |
| CNc1cc(C)c(-n2c(=O)n(C[C@H]3CC[C@H](NC(=O)c4cc(Cl)cnc4C)CC3)c3ccccc32)cn1 [Example 435, 5-chloro-2-methyl-N-((1r,4r)-4-((3-(4-methyl-6-(methylamino)pyridin-3-yl)-2-oxo-2,3-dihydro-1H-benzo[d]imidazol-1-yl)methyl)cyclohexyl)nicotinamide] | < 0.3 µM |
| Cc1ncc(Cl)cc1C(=O)N[C@H]1CC[C@H](Cn2c(=O)n(-c3ccc(NCC(F)(F)F)nc3)c3ccccc32)CC1 [Example 436, 5-chloro-2-methyl-N-((1r,4r)-4-((2-oxo-3-(6-((2,2,2-trifluoro-ethyl)amino)pyridin-3-yl)-2,3-dihydro-1H-benzo[d]imidazol-1-yl)methyl)cyclohexyl) nicotinamide] | < 0.3 µM |
| Cc1ncc(Cl)cc1C(=O)N[C@H]1CC[C@H](Cn2c(=O)n(-c3ccc(NCC(F)F)nc3)c3ccccc32)CC1 [Example 437, 5-chloro-N-((1r,4r)-4-((3-(6-((2,2-difluoroethyl)amino)pyridin-3-yl)-2-oxo-2,3-dihydro-1H-benzo[d]imidazol-1-yl)methyl)cyclohexyl)-2-methylnicotinamide] | < 0.3 µM |
| Cc1ncc(Cl)cc1C(=O)N[C@H]1CC[C@H](Cn2c(=O)n(-c3ccc(OC[C@@H](C)O)nc3)c3ccccc32)CC1 [Example 438, 5-chloro-N-((1R,4r)-4-((3-(6-((R)-2-hydroxypropoxy)pyridin-3-yl)-2-oxo-2,3-dihydro-1H-benzo[d]imidazol-1-yl)methyl)cyclohexyl)-2-methylnicotinamide] | < 0.3 µM |
| C[C@@H](O)COc1ccc(-n2c(=O)n(C[C@H]3CC[C@H](NC(=O)c4cc(Cl)cnc4C(F)F)CC3)c3ccccc32)cn1 [Example 439, 5-chloro-2-(difluoromethyl)-N-((1R,4r)-4-((3-(6-((R)-2-hydroxypropoxy)pyridin-3-yl)-2-oxo-2,3-dihydro-1H-benzo[d]imidazol-1-yl)methyl)cyclohexyl)nicotinamide] | < 0.3 µM |
| C[C@H](O)COc1ccc(-n2c(=O)n(C[C@H]3CC[C@H](NC(=O)c4cc(Cl)cnc4C(F)F)CC3)c3ccccc32)cn1 [Example 440, 5-chloro-2-(difluoromethyl)-N-((1S,4r)-4-((3-(6-((S)-2-hydroxypropoxy)pyridin-3-yl)-2-oxo-2,3-dihydro-1H-benzo[d]imidazol-1-yl)methyl)cyclohexyl)nicotinamide] | < 0.3 µM |
| Cc1ncc(Cl)cc1C(=O)N[C@H]1CC[C@H](Cn2c(=O)n(-c3ccc(NCc4cnn(C)c4)nc3)c3ccccc32)CC1 [Example 441, 5-chloro-2-methyl-N-((1r,4r)-4-((3-(6-(((1-methyl-1H-pyrazol-4-yl)methyl)amino)pyridin-3-yl)-2-oxo-2,3-dihydro-1H-benzo[d]imidazol-1-yl)methyl)cyclohexyl)nicotinamide] | < 0.3 µM |

From patent US11802120B2, “Fused cyclic urea derivatives as CRHR2 antagonist” (RaQualia Pharma Inc., priority 2018, dated 2023)
